Laboratory results taken from ChEMBL document CHEMBL1255508, “Neopetrosiamine A, biologically active bis-piperidine alkaloid from the Caribbean sea sponge Neopetrosia proxima” (Bioorg Med Chem Lett, 2010).
Values after ≈ are worked out from the molar mass of the structure shown.

Experiments:
Malme-3M = experiment: […] activity against human MALME-3M cells; assay type: functional, cell-based
CCRF-CEM = experiment: […] activity against human CCRF-CEM cells; assay type: functional, cell-based
MCF7 = experiment: […] activity against human MCF7 cells; assay type: functional, cell-based
[1] = tested on: Mycobacterium tuberculosis; experiment: Antimycobacterial activity against Mycobacterium tuberculosis H37Rv by microplate alamar blue assay; assay type: functional
Vero = experiment: Cytotoxicity against african green monkey Vero cells; assay type: cell-based; conditions: Chlorocebus sabaeus
Plasmodium falciparum = experiment: Antiplasmodial activity against Plasmodium falciparum; assay type: functional, organism-based

**Q.** For `C1=C\CCCCN2CC[C@@H]3[C@@H](CCCC/C=C\CCCCN4C[C@H](CCCC/1)C[C@H]3C4)C2` [NEOPETROSIAMINE A], which IC50 (Malme-3M) is on record?
**A.** Its IC50 is 1500 nM.

**Q.** What about the IC50 (CCRF-CEM) of the same compound?
**A.** Its IC50 is 2000 nM.

**Q.** And the IC50 (MCF7)?
**A.** Its IC50 is 3500 nM.

**Q.** What about the MIC [1] of the same compound?
**A.** The MIC was 7.5 µg/mL (≈ 17 µM).

**Q.** And the IC50 (Vero)?
**A.** The IC50 was 42.4 µg/mL (≈ 96.2 µM).

**Q.** And the IC50 (Plasmodium falciparum)?
**A.** Its IC50 is 2300 nM.
